# Reference: patent US20120148586A1, “GLUCAGON-LIKE PROTEIN-1 RECEPTOR (GLP-1R) AGONISTS FOR TREATING AUTOIMMUNE DISORDERS” (priority 2009, published 2012)
# Key:
# glucose and GLP-1 levels = test: oral glucose tolerance test; format: in vivo, mice; details: vs methylcellulose
# Excerpt: GLP-1 is degraded in vivo by dipeptidyl peptidase-4 (DPP-4). DPP-4 inhibitors include, for example without limitation, sitagliptin, vildagliptin, saxagliptin, linagliptin, dutogliptin, gemigliptin, alogliptin and berberine. To test whether the DPP-4 inhibitor sitagliptin can prevent glucose level increases and elevated GLP-1 levels, four groups of 12 month old male C57BI/6 mice (n=4-5) were fasted overnight and subjected to an oral glucose tolerance test the following morning. One hour prior to oral glucose challenge, test animals were orally dosed with either 1 mg/kg or 10 mg/kg sitagliptin. […] After oral glucose challenge, glucose levels were test at 20, 40, 60 and 120 minutes. Blood samples were also taken at 20 minutes after glucose challenge to check glucose and GLP-1 levels.
# GLP-1 levels = test: blood GLP1 levels in EAE mice at day 5 after immunization; format: in vivo; details: 10 mg/kg once daily, vs methylcellulose
# Excerpt: (§1) At day 5 after immunization, blood samples were taken for measurement of GLP1 levels. […] To monitor disease progression, animals were scored daily for morbidity as follows: 0=normal; 1=limp tail; 2=moderate hind limb weakness; 3=moderately severe hind limb weakness (animal can still walk with difficulty); 4=severe hind limb weakness (animal can move its hind limbs but cannot walk); 5=complete hind limb paralysis; and 6=death.
# [1] = test system: EAE in MOG (35-55) immunized C57BL/6 mice; test: EAE clinical score (morbidity) after MOG (35-55) immunization; format: in vivo
# Description: EAE was induced in female C57BL/6 mice by s.c. injection of 200 μg of the encephalitogenic peptide MOG (35-55) emulsified in CFA (Difco) and supplemented with 4 mg/ml of M. tuberculosis (Difco) on experiment day 0, followed immediately and again after 48 hours by 400 ng of pertussis toxin injected i.v.
# Animals were scored for morbidity as follows: 0=normal; 1=limp tail; 2=moderate hind limb weakness; 3=moderately severe hind limb weakness (animal can still walk with difficulty); 4=severe hind limb weakness (animal can move its hind limbs but cannot walk); 5=complete hind limb paralysis; and 6=death.
# Another group of mice were treated on a weekly basis with 1mg/kg GAC-1 (n=10). The mice were assessed daily for clinical signs of EAE according to the following scale: 0=normal; 1=limp tail; 2=moderate hind-limb weakness; 3=moderately severe hind-limb weakness (animal can still walk); 4=severe hind-limb weakness (animal can move their hind-limbs but cannot walk); 5=complete hind limb paralysis; 6=death.
# In a separate experiment, EAE was induced as described above. […] A second group of animals were treated with 3 mg/kg GAC-1 on day 0 after MOG immunization, followed by weekly treatments of 1 mg/kg GAC-1 starting on day 7 after immunization. A third group of animals were treated daily with PBS (control, n=10). Clinical scores were monitored daily following criteria described above.
# as §1
# thymocytes = test: CD4, CD8 double positive thymocytes in naïve and EAE animals (Table 5); format: in vivo, mice; details: exendin-4 1 mg/kg or dexamethasone 4 mg/kg, day 6
# Excerpt: EAE was induced in 8 week old C57B1/6 mice by subcutaneous injections of MOG/CFA followed by i.p. injection of pertussis toxin. […] Dexamethasone is known to cause T cell death. On day 6 after immunization, thymi were harvested. Thymocytes were isolated, stained with anti-CD4 and anti-CD8 antibodies and analyzed by flow cytometry.
# [2] = test system: lymphocytes, monocytes, CD4+, CD8+, CD19+ and Ter119+ cells; test: immune cell populations in EAE animals by FACS; format: in vivo, mice; details: spleen, day 5; exendin-4 1 mg/kg or dexamethasone 4 mg/kg daily
# [3] = test system: IL-17+ and IFN-γ+ cells (Th17 and Th1); test: IL-17+ and IFN-γ+ CD4 cells in inguinal lymph nodes by FACS; format: in vivo, mice; details: inguinal lymph node; exendin-4 1 mg/kg or dexamethasone 4 mg/kg daily; day 5 or 7
smiles,measurement,setting,value
N[C@@H](CC(=O)N1CCn2c(nnc2C(F)(F)F)C1)Cc1cc(F)c(F)cc1F [sitagliptin],glucose levels after oral glucose challenge,"glucose and GLP-1 levels; 1 mg/kg or 10 mg/kg oral, not statistically significant by two-way ANOVA",trend toward lower glucose levels
same,blood GLP-1 levels 20 minutes after oral glucose challenge,glucose and GLP-1 levels; either dose (1 mg/kg or 10 mg/kg oral),significantly increased blood GLP-1 levels
same,GLP-1 levels at day 5 after immunization,GLP-1 levels,significantly higher GLP-1 levels
same,disease score from day 18 to day 20,"[1]; 10 mg/kg once daily, vs methylcellulose",significantly lower
same,morbidity (EAE clinical score),"[1]; once daily day 0 to day 28, exendin-4 1 mg/kg, sitagliptin 1 or 10 mg/kg, vs methylcellulose, FIG. 18",significantly reduced morbidity
same,EAE progression / disease symptoms,"[1]; once daily day 0 to day 28, exendin-4 1 mg/kg, sitagliptin either 1 mg/kg or 10 mg/kg, FIG. 18",trend towards attenuating disease symptoms
C[C@@H]1C[C@H]2[C@@H]3CCC4=CC(=O)C=C[C@]4(C)[C@@]3(F)[C@@H](O)C[C@]2(C)[C@@]1(O)C(=O)CO [dexamethasone],"% CD4, CD8 double positive cells",thymocytes; EAE mice,1.5±0.5%
same,"% CD4, CD8 double positive cells",thymocytes; Naïve mice,12.4±3.3%
same,reduction of Ter119+ cells in EAE animals,[2],20-25%
same,reduction of IL-17+ cells in EAE animals,[3],50%
